Data as given in US9399759B2, “Method for producing neurospheres” (Keio University, priority 2008, dated 2016).

Tests used:
[1] = system: dedifferentiation factor-introduced fibroblasts; assay: Effect of cell death inhibitors on induction of differentiation into mouse neurospheres (Example 2); format: cell-based; conditions: Day 20 of the culture, FIG. 4A
Procedure: (§1) The dedifferentiation factor-introduced fibroblasts cultured as above were dissociated by washing with 0.25% trypsin EDTA, resuspended in 10 ml of DMEM/F-12 serum-free medium (1:1, Invitrogen; containing 0.6% D-glucose, 5 mM HEPES, 3 mM NaHCO3, 2 mM glutamine, 25 ug/ml insulin, 100 ug/ml transferrin, 20 nM progesterone, 60 uM putrescine and 30 nM sodium selenate) supplemented with LIF (recombinant human LIF; Chemi-Con, 100 U/ml) and FGF (PeproTech, 20 ng/ml) at the density of 50 cells/ul, seeded in bacterial plastic culture dishes, and cultured in suspension under the conditions of 37° C. and 5% CO2 with exchanging the culture media every 14 days. On Day 3 and Day 20 during the suspension culture, the states of the cells were observed.
In order to examine the improvement of the efficiency for the induction of differentiation into neurospheres by cell death inhibitors of N-acetyl-L-cysteine (NAC) and 8-chlorophenylthio (pCPT-cAMP), a membrane-permeable analog of cAMP, media supplemented with either or both of 1 mM of NAC(Sigma) and 100 uM of pCPT-cAMP (Sigma) were used in the suspension culture as described in Example 1. Other procedures were followed in the same way as described in Example 1, and numbers of neurospheres on Day 20 of the culture were counted.

human fibroblasts = assay: Effect of LIF, cAMP and Y27632 on number of human neurospheres formed (Example 2); format: cell-based; conditions: media with cAMP in place of or in addition to LIF, or cAMP, FIG. 4B
Procedure: as §1
In the case of human fibroblasts, the culture media were supplemented with cAMP in place of or in addition to LIF or with cAMP, LIF and a ROCK inhibitor Y27632, and the number of the neurospheres obtained from 250000 cells was counted.

CC(=O)N[C@@H](CS)C(=O)O [NAC, N-acetyl-L-cysteine]
number of neurospheres as compared to the Control Group ([1]; only NAC added, 1 mM): no difference was observed

C[C@@H](N)[C@H]1CC[C@H](C(=O)Nc2ccncc2)CC1 [Y27632]
effect on neurosphere formation (number of neurospheres obtained from 250000 cells) (human fibroblasts): no effect

Nc1ncnc2c1nc(Sc1ccc(Cl)cc1)n2[C@@H]1O[C@@H]2COP(=O)([O-])O[C@H]2[C@H]1O.[Na+] [pCPT-cAMP, 8-chlorophenylthio (pCPT-cAMP)]
increase of number of neurospheres per 10 ml of the medium as compared to Control Group ([1]; only pCPT-cAMP added, 100 uM, adult mouse fibroblasts): over 100 fold
effect on neurosphere formation (number of neurospheres obtained from 250000 cells) (human fibroblasts): additive effect

LIF: recombinant human LIF; Chemi-Con; growth factor added to the medium
effect on neurosphere formation (number of neurospheres obtained from 250000 cells) (human fibroblasts): additive effect
